Assay results as given in publication PMC10629583, “Specific inhibition of an anticancer target, polo-like kinase 1, by allosterically dismantling its mechanism of substrate recognition” (Proceedings of the National Academy of Sciences of the …, 2023).
“Also recorded” adds a separate entry of the source. [ ]: non-standard residue; d: D form. The star is where a group is joined. FITC = O=C1OC2(c3ccc(O)cc3Oc3cc(O)ccc32)c2ccc(NC(=S)*)cc21; pT = C[C@@H](OP(=O)(O)O)[C@H](N)C(=O)O; Ahx = NCCCCCC(=O)O

How the values were obtained:
[1] = molecular target: T1, full-length Plk1 (Homo sapiens, UniProt P53350); assay: ELISA-based PBD1-binding inhibition assay; settings: total lysates from HEK293A cells expressing full-length Plk1; biotinylated PBIP1 p-T78 peptide; read-out: Anti-Plk1 (full length) ELISA (IC50) Mean ± SEM
T1 construct: expressed in transfected cells; host or cells: HEK293A cells infected with adenovirus; total lysate

[2] = tested on: L363 cells; assay: MTS cell viability assay, L363 cells; format: cell-based; settings: 48 h treatment
[3] = Conversion of prodrug 6 to active species 5 by GSH (HPLC); format: physicochemical; settings: room temperature, after 5 min
Protocol: To a solution of 6 (1.0 mg, 2.4 µmol) in 0.800 mL of MeOH-d4 was added a solution of glutathione (1.1 mg, 3.6 µmol) and sodium carbonate (0.76 mg, 7.2 µmol) in 0.200 mL of D2O. The reaction was stirred at room temperature and sampled at 5, 10, 20, and 60 min. Aliquots were flash-frozen on dry ice and always stored at −80 °C. HPLC and mass spectrometry were used to analyze the reaction mixtures.
HPLC analysis of both pure 6 (rt = 13.95 min) and 5 (rt = 11.16 min) using the method of acetonitrile 05 to 95% and 10 mM triethylammonium acetate 95 to 5% in 20 min gave standards to compare against the reaction mixture. The HPLC analysis of the reaction mixture, compared to standards, was performed using a Hewlett−Packard 1100 HPLC equipped with an Agilent Eclipse 5 µm XDB-C18 analytical column (50 mm × 4.6 mm; Agilent Technologies Inc.).

[4] = Solubility in PBS (imaging of insoluble particles, dynamic light scattering); format: physicochemical; settings: PBS buffer (pH 7.4)
Protocol: All samples were analyzed after adjusting the concentration to 100 μM solution in the PBS buffer (pH 7.4) containing 1% DMSO. The measurements were carried out at 25 °C using the DynaPro NanoStar system (Wyatt Technology). The intensity of the scattered light was measured as a function of time, and the resulting data were used to calculate the size and distribution of the particles in the sample. Collected data were analyzed using the DYNAMICS software to calculate the mean size and polydispersity index of the particles in the sample. At least three repeat measurements were performed to ensure that the results were accurate and reproducible.
Fig. S1. Solubility and activity of Allopole and its related compounds. (A) Images showing insoluble
particles of 200 µM of the indicated compounds dissolved in the PBS buffer. The aggregates of […]

[5] = tested on: 45 receptors and channels; assay: PDSP off-target screen (whole panel); format: binding, human
Excerpt: (§1) PDSP no. Compound Interactions (Ki, µM)
(§2) 60477 Allopole-A None observed.
(§3) trigger a secondary screen at that receptor.

[6] = tested on: cultured cells; parameters: method as in PMID 31685831; settings: cited from earlier work
[7] = molecular target: T2, Plk1 PBD (PBD1) (Homo sapiens, UniProt P53350); assay: FP-based inhibition assay, PBD1; format: binding; settings: FP, bacterially expressed purified PBD, FITC-ligand 15 nM, PBD at EC85; read-out: PBD1 IC50 ± SD
T2 construct: constructs expressing PBD1 (residues 345–603) WT (pKM7650); His; TEV site (N); made in house; host or cells: bacteria (E. coli)
Protocol: (§4) FP assays were carried out essentially as described previously ([35], [36]). […] All the samples were analyzed approximately 30 min after reaction in a 384-well format using the SpectraMax Paradigm multimode microplate detection platform (Molecular Devices). Data were analyzed after carrying out at least three independent experiments using GraphPad Prism software version 8.

[8] = molecular target: T3, Plk2 PBD (PBD2) (Homo sapiens, UniProt Q9NYY3); assay: FP-based inhibition assay, PBD2; format: binding; settings: bacterially expressed purified PBD, FITC-ligand 15 nM, PBD at EC85
T3 construct: Purification of PBD2-His (355–685) (pKM3358) and its S652F mutant (pKM7980); His (C); made in house; host or cells: bacteria (E. coli)
T3 sequence (Q9NYY3 355-685): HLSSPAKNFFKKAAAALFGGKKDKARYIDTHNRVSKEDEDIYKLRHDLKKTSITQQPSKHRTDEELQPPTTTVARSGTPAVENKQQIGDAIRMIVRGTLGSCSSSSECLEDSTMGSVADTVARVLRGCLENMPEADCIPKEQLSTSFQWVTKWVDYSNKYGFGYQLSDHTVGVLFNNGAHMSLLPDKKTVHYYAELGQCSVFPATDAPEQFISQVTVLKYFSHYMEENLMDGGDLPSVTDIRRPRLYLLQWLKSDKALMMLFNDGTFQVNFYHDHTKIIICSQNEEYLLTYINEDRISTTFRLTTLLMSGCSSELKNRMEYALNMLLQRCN
Protocol: as §4

[9] = molecular target: T4, Plk3 PBD (PBD3) (Homo sapiens, UniProt Q9H4B4); assay: FP-based inhibition assay, PBD3; format: binding; settings: bacterially expressed purified PBD, FITC-ligand 15 nM, PBD at EC85
T4 construct: MBP-PBD3-His (335–646) (pKM3359) and its A612F (pKM7981); His (C); made in house; host or cells: bacteria (E. coli)
T4 sequence (Q9H4B4 335-646): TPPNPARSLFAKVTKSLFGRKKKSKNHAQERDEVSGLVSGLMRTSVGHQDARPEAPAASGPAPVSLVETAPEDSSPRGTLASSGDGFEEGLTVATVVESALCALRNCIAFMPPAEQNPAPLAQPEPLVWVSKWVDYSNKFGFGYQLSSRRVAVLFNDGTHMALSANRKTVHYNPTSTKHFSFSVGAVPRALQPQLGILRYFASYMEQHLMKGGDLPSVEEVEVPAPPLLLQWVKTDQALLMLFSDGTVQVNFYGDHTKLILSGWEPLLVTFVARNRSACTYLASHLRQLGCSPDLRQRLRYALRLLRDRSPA
Protocol: (§5) FP assays were carried out essentially as described previously ([35], [36]). FITC-conjugated ligands (15 nM) were mixed with PBDs at their EC85 concentrations. All the samples were analyzed approximately 30 min after reaction in a 384-well format using the SpectraMax Paradigm multimode microplate detection platform (Molecular Devices). Data were analyzed after carrying out at least three independent experiments using GraphPad Prism software version 8.

[10] = molecular target: BZP Rat brain site; assay: PDSP off-target binding screen; settings: read-out: Secondary screen Ki
Excerpt: as §1, §2, §3

[11] = molecular target: T5, PBD1 F559D mutant (Homo sapiens, UniProt P53350, F559D); assay: FP-based binding/inhibition assay, PBD1 F559D; settings: FP binding, PBD1 F559D vs WT
T5 construct: constructs expressing PBD1 (residues 345–603) WT (pKM7650), F559D (pKM7878); His; TEV site (N); made in house; host or cells: bacteria (E. coli)
Protocol: as §5
(§6) Fig. S4. Generation of F559 mutants for in vitro and cell-based assays in Fig. 4. (A) SDS-PAGE showing the proteins used for the FP assays in Fig. 4 A and B. CBB, a Coomassie Brilliant Blue– stained gel. (B) Summary of Kd and EC85 values for PBD1 WT and mutants. The Kd values for PBD1 WT and mutants were determined after extrapolating them from the binding curves as the concentration at which 50% of the FITC-Ahx-DPPLHSpTAI-NH2 are PBD1-bound. The EC85 values indicate the effective concentration of 85% of the maximal concentration calculated for each protein. The FP values were obtained 30 minutes after incubation. For the F559K and F559R mutants, we were not able to determine the EC85 values and therefore used 2 µM of these proteins for the assays in Fig. 4B. N.D., not determined. […]

[12] = molecular target: T6, PBD1 F559E mutant (Homo sapiens, UniProt P53350, F559E); assay: FP-based binding/inhibition assay, PBD1 F559E; settings: FP binding, PBD1 F559E vs WT
T6 construct: constructs expressing PBD1 (residues 345–603) WT (pKM7650), F559D (pKM7878), F559E (pKM7879); His; TEV site (N); made in house; host or cells: bacteria (E. coli)
Protocol: as §5, §6

[13] = molecular target: T7, PBD1 F559K mutant (Homo sapiens, UniProt P53350, F559K); assay: FP-based binding/inhibition assay, PBD1 F559K; settings: FP binding, PBD1 F559K vs WT
T7 construct: constructs expressing PBD1 (residues 345–603) WT (pKM7650); His; TEV site (N); made in house; host or cells: bacteria (E. coli)
Protocol: as §5, §6

[14] = molecular target: T8, PBD1 F559R mutant (Homo sapiens, UniProt P53350, F559R); assay: FP-based binding/inhibition assay, PBD1 F559R; settings: FP binding, PBD1 F559R vs WT
T8 construct: constructs expressing PBD1 (residues 345–603) WT (pKM7650); His; TEV site (N); made in house; host or cells: bacteria (E. coli)
Protocol: as §5, §6

[15] = tested on: Flag-Plk1 K82M; assay: Pulldown with biotinylated compound 22, Plk1; format: binding; settings: streptavidin agarose, anti-Flag immunoblot
Protocol: (§7) A mixture of total cell lysates expressing Flag-Plk1 K82M (pKL577), Flag-Plk2 K108M (pKL1416), or Flag-Plk3 K52R (pKM203) (a gift from Wei Dai, New York University School of Medicine, NY) was prepared in TBSN buffer and incubated with a biotinylated Allopole-A-derivative, 22, or biotin alone. The resulting samples were then subjected to pulldown analyses with streptavidin agarose bead (Thermo Fisher Scientific), after which they were separated by SDS-PAGE and immunoblotted with anti-Flag antibody.

[16] = tested on: Flag-Plk2 K108M; assay: Pulldown with biotinylated compound 22, Plk2; format: binding; settings: streptavidin agarose, anti-Flag immunoblot
Protocol: as §7

[17] = molecular target: T9, Flag-Plk3 K52R (Homo sapiens, UniProt Q9H4B4, K91R); assay: Pulldown with biotinylated compound 22, Plk3; format: binding; settings: streptavidin agarose, anti-Flag immunoblot
T9 construct: expressed in transfected cells; host or cells: HEK293 cells; mixed total lysates
Protocol: as §7

T1 sequence (P53350 whole entry): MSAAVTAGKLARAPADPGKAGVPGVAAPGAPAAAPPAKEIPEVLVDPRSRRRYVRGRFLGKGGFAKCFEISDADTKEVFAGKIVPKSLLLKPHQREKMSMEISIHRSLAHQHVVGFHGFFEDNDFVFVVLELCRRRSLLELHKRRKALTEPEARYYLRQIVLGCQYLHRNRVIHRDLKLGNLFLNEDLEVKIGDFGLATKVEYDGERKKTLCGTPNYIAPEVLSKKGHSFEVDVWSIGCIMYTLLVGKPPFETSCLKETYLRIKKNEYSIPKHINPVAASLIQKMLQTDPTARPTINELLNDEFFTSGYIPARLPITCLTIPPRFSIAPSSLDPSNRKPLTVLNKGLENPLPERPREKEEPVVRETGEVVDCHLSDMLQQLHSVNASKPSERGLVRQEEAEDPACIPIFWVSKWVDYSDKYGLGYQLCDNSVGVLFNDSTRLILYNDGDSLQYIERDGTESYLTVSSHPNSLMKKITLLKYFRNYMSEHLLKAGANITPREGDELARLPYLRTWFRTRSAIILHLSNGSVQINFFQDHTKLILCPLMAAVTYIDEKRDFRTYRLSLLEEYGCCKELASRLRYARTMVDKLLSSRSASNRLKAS
T2 sequence (P53350 345-603): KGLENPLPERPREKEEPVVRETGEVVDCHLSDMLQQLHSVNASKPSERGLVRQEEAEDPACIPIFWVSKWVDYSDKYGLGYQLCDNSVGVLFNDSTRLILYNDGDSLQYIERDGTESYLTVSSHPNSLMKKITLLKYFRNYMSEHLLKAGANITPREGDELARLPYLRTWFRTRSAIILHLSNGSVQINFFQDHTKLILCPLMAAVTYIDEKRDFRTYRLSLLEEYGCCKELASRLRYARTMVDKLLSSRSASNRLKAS
T5 sequence (P53350 345-603 F559D): as the sequence (P53350 345-603) above, with F215D counted along it
T9 sequence (Q9H4B4 40-646 K91R limits assumed): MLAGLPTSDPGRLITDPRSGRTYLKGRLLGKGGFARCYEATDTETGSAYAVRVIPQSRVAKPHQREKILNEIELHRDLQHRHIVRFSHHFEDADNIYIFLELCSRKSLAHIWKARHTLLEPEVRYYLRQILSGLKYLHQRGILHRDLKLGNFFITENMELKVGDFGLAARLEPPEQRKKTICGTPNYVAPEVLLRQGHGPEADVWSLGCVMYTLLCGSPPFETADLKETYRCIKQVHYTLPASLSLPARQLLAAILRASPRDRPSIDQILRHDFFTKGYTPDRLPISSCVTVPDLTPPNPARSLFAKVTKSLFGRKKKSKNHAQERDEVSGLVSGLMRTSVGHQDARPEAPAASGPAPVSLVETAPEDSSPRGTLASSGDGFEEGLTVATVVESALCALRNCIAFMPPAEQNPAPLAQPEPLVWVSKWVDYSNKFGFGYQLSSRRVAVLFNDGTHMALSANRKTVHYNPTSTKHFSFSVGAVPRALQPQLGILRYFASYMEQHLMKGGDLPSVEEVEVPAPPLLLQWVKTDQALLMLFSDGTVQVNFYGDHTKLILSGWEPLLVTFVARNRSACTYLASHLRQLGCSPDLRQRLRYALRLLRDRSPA
T7 sequence (P53350 345-603 F559K): as the sequence (P53350 345-603) above, with F215K counted along it
T8 sequence (P53350 345-603 F559R): as the sequence (P53350 345-603) above, with F215R counted along it
T6 sequence (P53350 345-603 F559E): as the sequence (P53350 345-603) above, with F215E counted along it

Cc1cc2c(s1)c(=O)n(CC1CC1)c1nnc(Sc3c([N+](=O)[O-])ncn3C)n21 [compound 6]
IC50 [1]: > 50 µM | GI50 ([2]; read-out: Cell efficacy (GI50) Mean ± SD): 3.13 ± 0.15 µM | Conversion of prodrug to active species by GSH (in words) [3]: complete conversion | Solubility (in words) [4]: low solubility | Interactions (Ki, µM), summary of PDSP screen (in words) [5]: None observed

Polotyrin
GI50 [6]: a few hundred

Cc1cc2c(s1)c(=O)n(CC1CC1)c1n[nH]c(=S)n21 [compound 5]
IC50 [1]: 1.66 ± 0.04 µM | Cell efficacy (GI50) Mean ± SD [2]: N. S. | IC50 [7]: 0.0128 ± 0.0026 µM | PBD2 IC50 ± SD [8]: N. S. | PBD3 IC50 ± SD [9]: N. S. | Ki [10]: 0.41 µM

FITC-Ahx-DPPLHSpTAI-NH2 ({FITC-Ahx}-DPPLHS[pT]AI-NH2; SMILES CC[C@H](C)[C@H](NC(=O)[C@H](C)NC(=O)[C@@H](NC(=O)[C@H](CO)NC(=O)[C@H](Cc1c[nH]cn1)NC(=O)[C@H](CC(C)C)NC(=O)[C@@H]1CCCN1C(=O)[C@@H]1CCCN1C(=O)[C@H](CC(=O)O)NC(=O)CCCCCNC(=S)Nc1ccc2c(c1)C(=O)OC21c2ccc(O)cc2Oc2cc(O)ccc21)[C@@H](C)OP(=O)(O)O)C(N)=O) [FITC-conjugated phosphopeptide, FP probe, reference compound]
Decrease in affinity of the FITC-phosphopeptide compared to WT [11]: 1.7 fold | Decrease in affinity of the FITC-phosphopeptide compared to WT [12]: approximately sevenfold decreased affinity | Decrease in affinity of the FITC-phosphopeptide compared to WT [13]: more than 27 fold | Decrease in affinity of the FITC-phosphopeptide compared to WT [14]: > 42 fold

O=C(CCCCC1SCC2NC(=O)NC21)NCCOCCOCCOCCOCCC(=O)NCCCn1c(=O)c2cc(F)ccc2n2c(=S)[nH]nc12 (centres unmarked) [compound 22]
IC50 [1]: 9.32 ± 0.17 µM | Pulldown of Plk1 from mixed total lysates (in words) [15]: precipitated the full-length Plk1; also recorded: specifically interacts with | Pulldown of Plk2 from mixed total lysates (in words) [16]: not Plk2 or Plk3 | Pulldown of Plk3 from mixed total lysates (in words) [17]: not Plk2 or Plk3
